Test results taken from publication PMC12457637, “An aptamer-drug conjugate for promising cancer therapy with comprehensive evaluation from rodents to non-human primates” (Signal Transduction and Targeted Therapy, 2025).
Starred links: 1 amine or outer side, 2 acyl side, 3 side chain; linkers in the order of their positions; H or OH if unused. Non-standard residues stand in square brackets, D forms with d. Residues, ends and D or L forms follow the SMILES beside them. *: point of attachment. Dolaproine = CO[C@@H]([C@@H]1CCCN1)[C@@H](C)C(=O)O; Hexanoyl(6-maleimido) = O=C1C=CC(=O)N1CCCCCC(=O)*; Dil = CC[C@H](C)[C@H](NC)[C@@H](CC(=O)O)OC; PABC = O=C(OCc1ccc(N[*:1])cc1)[*:2]; X1 = C[C@@H](N*)[C@@H](O)c1ccccc1; Cit = NC(=O)NCCC[C@H](N)C(=O)O; NMeV = CN[C@H](C(=O)O)C(C)C

How the values were obtained:
Assay type in all cases: cell-based
MIA PaCa-2 cells = assay: 72-h cytotoxicity (MTS), MIA PaCa-2; details: MIA PaCa-2, 72-h incubation
Method: (§1) Cells were seeded in wells of a 96-well plate (6000 cells/well) and incubated overnight to allow for cell adherence. On the second day, 100 μL complete medium containing VcMMAE and Sgc8c-M (400, 200, 100, 50, 25, 12.5, and 6.25 nM), as well as MMAE (5, 2.5, 1.25, 0.625, 0.3125, 0.15625, and 0.078125 nM), were added to wells of a 96-well plate for an additional 72-h incubation at 37 °C. At the end of incubation, 100 μL of CellTiter 96® Aqueous One Solution Cell Proliferation Assay (MTS, Promega) solution (prepared by mixing 2 mL MTS with 9 mL of complete medium) were added to each well. The plates were then incubated for an additional 1–2 h to allow for the formation of formazan crystals. The absorbance of each well was measured at 490 nm using a Multi-Mode Microplate Reader (TECAN, SPARK) to assess cell viability. Cell viability was calculated as [OD490 (treatment) - OD490 (blank)]/[OD490 (nontreatment) - OD490 (blank)] × 100%.

HT-29 cells = assay: 72-h cytotoxicity (MTS), HT-29; details: HT-29, 72 h
Method: as §1

OVCAR3 cells = assay: 72-h cytotoxicity (MTS), OVCAR3; details: OVCAR3, 72 h
Method: as §1

CC[C@H](C)[C@@H]([C@@H](CC(=O)N1CCC[C@H]1[C@H](OC)[C@@H](C)C(=O)N[C@H](C)[C@@H](O)c1ccccc1)OC)N(C)C(=O)[C@@H](NC(=O)[C@H](C(C)C)N(C)C(=O)OCc1ccc(NC(=O)[C@H](CCCNC(N)=O)NC(=O)[C@@H](NC(=O)CCCCCN2C(=O)C=CC2=O)C(C)C)cc1)C(C)C [VcMMAE, MC-VC-PAB-MMAE] ({Hexanoyl(6-maleimido)}-V[Cit][PABC][NMeV]V[Dil][Dolaproine]-X1)
IC50 (MIA PaCa-2 cells): 187 nM | IC50 (HT-29 cells): 203 nM | IC50 (OVCAR3 cells): 105 nM
